Target: T1, Lsm12 (Homo sapiens, UniProt Q3MHD2)
T1 construct: hLsm12-HisE.coli: 6×His-tagged human Lsm12 (195 residues in full length) purified from E. coli
Test: competition […]-NAADP radioligand binding with purified protein; also competition pull-down with immobilized NAADP (Kd […])

T1 sequence (Q3MHD2 whole entry): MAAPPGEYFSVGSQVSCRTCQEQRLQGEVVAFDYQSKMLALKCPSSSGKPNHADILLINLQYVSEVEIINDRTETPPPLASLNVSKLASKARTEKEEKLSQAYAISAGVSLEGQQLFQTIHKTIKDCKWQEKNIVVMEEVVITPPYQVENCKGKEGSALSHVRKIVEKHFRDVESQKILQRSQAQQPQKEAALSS

Kd: ~20 nM
SMILES: Nc1ncnc2c1ncn2[C@@H]1O[C@H](COP(=O)(O)OP(=O)(O)OC[C@H]2O[C@@H]([n+]3cccc(C(=O)[O-])c3)[C@H](O)[C@@H]2O)[C@@H](O)[C@H]1OP(=O)(O)O [NAADP]
